Measurements reported in patent US8791107B2, “N-substituted oxazinopteridines and oxazinopteridinones” (Takeda Pharmaceutical Company Limited, priority 2011, dated 2014).

These compounds were tested against T1, PI3Kδ (Homo sapiens, UniProt O00329) (assay: PI3Kδ inhibition, modified PIK3CD Adapta TR-FRET assay). Conditions: recombinant GST-tagged full length PIK3CD co-expressed with PIK3R1 (p85α); 2 μM ATP, 50 μM PIP2; read-out: PI3Kδ Inhibition (pIC50) (converted).
T1 construct: The protein is full length and co-expressed with untagged PIK3R1; GST; purchased Invitrogen PV5274
Format: biochemical
Summary of the method: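 Full-length GST-PIK3CD co-expressed with p85α was run in 50 mM HEPES pH 7.5, 3 mM MgCl2, 1 mM EGTA, 100 mM NaCl, 0.03% CHAPS, 2 mM DTT, 1% DMSO, with 12-point compound titrations. Reactions at room temperature were started with solution containing 2 μM ATP and 50 μM PIP2. ADP was detected by Adapta TR-FRET (620 nm-ratioed).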

T1 sequence (O00329 whole entry): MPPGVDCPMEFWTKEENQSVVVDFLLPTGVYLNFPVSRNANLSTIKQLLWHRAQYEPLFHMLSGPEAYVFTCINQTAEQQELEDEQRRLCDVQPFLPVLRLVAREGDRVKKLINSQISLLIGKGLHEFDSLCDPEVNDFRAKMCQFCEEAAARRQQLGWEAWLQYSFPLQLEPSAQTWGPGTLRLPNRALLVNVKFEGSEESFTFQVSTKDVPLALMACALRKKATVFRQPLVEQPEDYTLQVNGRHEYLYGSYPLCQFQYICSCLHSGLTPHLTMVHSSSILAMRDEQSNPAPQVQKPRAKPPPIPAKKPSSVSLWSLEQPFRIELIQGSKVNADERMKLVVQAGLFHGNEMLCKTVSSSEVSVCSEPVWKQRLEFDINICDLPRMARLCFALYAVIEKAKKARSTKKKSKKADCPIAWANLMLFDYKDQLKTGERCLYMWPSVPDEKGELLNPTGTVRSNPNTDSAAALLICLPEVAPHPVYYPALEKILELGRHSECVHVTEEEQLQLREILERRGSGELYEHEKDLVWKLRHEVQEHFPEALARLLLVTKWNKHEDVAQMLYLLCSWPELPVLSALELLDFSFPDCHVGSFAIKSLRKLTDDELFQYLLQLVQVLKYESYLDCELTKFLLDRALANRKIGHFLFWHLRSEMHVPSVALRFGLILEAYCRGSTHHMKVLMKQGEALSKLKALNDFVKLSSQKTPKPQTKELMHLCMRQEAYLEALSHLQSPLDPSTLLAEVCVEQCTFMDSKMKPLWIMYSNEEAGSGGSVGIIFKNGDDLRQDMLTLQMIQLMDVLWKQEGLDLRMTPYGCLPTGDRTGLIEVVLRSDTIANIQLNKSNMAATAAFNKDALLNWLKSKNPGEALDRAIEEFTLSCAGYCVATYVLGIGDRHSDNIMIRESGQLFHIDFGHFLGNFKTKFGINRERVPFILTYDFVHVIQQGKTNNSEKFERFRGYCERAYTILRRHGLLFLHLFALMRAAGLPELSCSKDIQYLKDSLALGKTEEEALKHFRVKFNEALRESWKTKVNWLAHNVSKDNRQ
T1 sequence (P27986 whole entry partner): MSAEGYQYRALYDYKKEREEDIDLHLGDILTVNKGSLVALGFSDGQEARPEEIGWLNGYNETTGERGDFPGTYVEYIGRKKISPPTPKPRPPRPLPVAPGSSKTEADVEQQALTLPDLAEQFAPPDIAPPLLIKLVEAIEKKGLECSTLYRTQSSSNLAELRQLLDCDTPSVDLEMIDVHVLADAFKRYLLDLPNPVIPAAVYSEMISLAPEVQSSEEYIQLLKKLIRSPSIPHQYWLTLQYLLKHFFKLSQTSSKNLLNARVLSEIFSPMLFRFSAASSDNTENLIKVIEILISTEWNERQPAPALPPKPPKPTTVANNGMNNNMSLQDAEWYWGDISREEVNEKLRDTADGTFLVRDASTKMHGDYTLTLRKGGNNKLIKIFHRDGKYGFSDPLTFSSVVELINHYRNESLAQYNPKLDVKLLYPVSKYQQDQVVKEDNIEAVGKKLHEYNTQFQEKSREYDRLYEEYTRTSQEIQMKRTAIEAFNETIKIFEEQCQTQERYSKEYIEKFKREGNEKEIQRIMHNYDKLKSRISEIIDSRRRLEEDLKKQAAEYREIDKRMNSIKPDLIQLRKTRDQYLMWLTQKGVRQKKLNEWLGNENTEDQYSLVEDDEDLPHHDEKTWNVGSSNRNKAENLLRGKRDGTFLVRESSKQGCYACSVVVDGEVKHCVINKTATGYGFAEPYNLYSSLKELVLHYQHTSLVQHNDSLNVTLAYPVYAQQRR

| Structure (SMILES) | IC50 [µM] |
| --- | --- |
| Cc1nnc(CN2C(=O)C3COCCN3c3nc(-n4c(C(F)F)nc5ccccc54)ncc32)o1 (stereo not shown) [Example 157, 2-(2-(difluoromethyl)-1H-benzo[d]imidazol-1-yl)-5-((5-methyl-1,3,4-oxadiazol-2-yl)methyl)-6a,7,9,10-tetrahydro-[1,4]oxazino[3,4-h]pteridin-6(5H)-one] | 0.0398 |
| CNC(=O)Nc1ccc(-c2ncc3c(n2)N2CCOCC2C(=O)N3C2CCOCC2)cc1 (stereo not shown) [Example 158, 1-methyl-3-(4-(6-oxo-5-(tetrahydro-2H-pyran-4-yl)-5,6,6a,7,9,10-hexahydro-[1,4]oxazino[3,4-h]pteridin-2-yl)phenyl)urea] | 0.00794 |
| CNC(=O)Nc1ccc(-c2ncc3c(n2)N2CCOC[C@@H]2C(=O)N3C2CCOCC2)cc1 [Example 159, (R)-1-methyl-3-(4-(6-oxo-5-(tetrahydro-2H-pyran-4-yl)-5,6,6a,7,9,10-hexahydro-[1,4]oxazino[3,4-h]pteridin-2-yl)phenyl)urea] | 0.00251 |
| c1cnc(CN2CC3COCCN3c3nc(-c4cccc5[nH]ccc45)ncc32)nc1 (stereo not shown) [Example 164, 2-(1H-indol-4-yl)-5-(pyrimidin-2-ylmethyl)-5,6,6a,7,9,10-hexahydro-[1,4]oxazino[3,4-h]pteridine] | 0.0794 |
| Cc1ccc(CO)c(CN2C[C@@H]3COCCN3c3nc(-c4cccc5[nH]ccc45)ncc32)c1 [Example 166, (R)-(2-((2-(1H-indol-4-yl)-6a,7,9,10-tetrahydro-[1,4]oxazino[3,4-h]pteridin-5(6H)-yl)methyl)-4-methylphenyl)methanol] | 0.0631 |
| CC(C)(O)CCN1C[C@@H]2COCCN2c2nc(-c3cccc4[nH]ccc34)ncc21 [Example 169, (R)-4-(2-(1H-indol-4-yl)-6a,7,9,10-tetrahydro-[1,4]oxazino[3,4-h]pteridin-5(6H)-yl)-2-methylbutan-2-ol] | 0.00794 |
| CC(C)(O)CCN1C[C@@H]2COCCN2c2nc(-c3cncc4[nH]ccc34)ncc21 [Example 170, (R)-4-(2-(1H-pyrrolo[2,3-c]pyridin-4-yl)-6a,7,9,10-tetrahydro-[1,4]oxazino[3,4-h]pteridin-5(6H)-yl)-2-methylbutan-2-ol] | 0.00631 |
| OCCN1C[C@@H]2COCCN2c2nc(-c3cccc4[nH]ccc34)ncc21 [Example 173, (R)-2-(2-(1H-indol-4-yl)-6a,7,9,10-tetrahydro-[1,4]oxazino[3,4-h]pteridin-5(6H)-yl)ethanol] | 0.158 |

Next, values leading:

| IC50 [µM] | Structure (SMILES) |
| --- | --- |
| 0.794 | COC(=O)c1ccc(C)cc1CN1C[C@@H]2COCCN2c2nc(-c3cccc4[nH]ccc34)ncc21 [Example 165, (R)-methyl 2-((2-(1H-indol-4-yl)-6a,7,9,10-tetrahydro-[1,4]oxazino[3,4-h]pteridin-5(6H)-yl)methyl)-4-methylbenzoate] |
| 1 | CCc1nnc(CN2C[C@@H]3COCCN3c3nc(-c4cncc5[nH]ccc45)ncc32)o1 [Example 167, (R)-5-((5-ethyl-1,3,4-oxadiazol-2-yl)methyl)-2-(1H-pyrrolo[2,3-c]pyridin-4-yl)-5,6,6a,7,9,10-hexahydro-[1,4]oxazino[3,4-h]pteridine] |
| > 10 | CCc1nnc(CN2C[C@@H]3COCCN3c3nc(-c4ccc(O)nc4)ncc32)o1 [Example 168, (R)-5-(5-((5-ethyl-1,3,4-oxadiazol-2-yl)methyl)-5,6,6a,7,9,10-hexahydro-[1,4]oxazino[3,4-h]pteridin-2-yl)pyridin-2-ol] |
| 0.00316 | CC(C)(O)CCN1C[C@@H]2COCCN2c2nc(-c3cccc(CO)c3)ncc21 [Example 171, (R)-4-(2-(3-(hydroxymethyl)phenyl)-6a,7,9,10-tetrahydro-[1,4]oxazino[3,4-h]pteridin-5(6H)-yl)-2-methylbutan-2-ol] |
| 0.00501 | CCc1nnc(CN2C[C@@H]3COCCN3c3nc(-c4cccc(CO)c4)ncc32)o1 [Example 172, (R)-(3-(5-((5-ethyl-1,3,4-oxadiazol-2-yl)methyl)-5,6,6a,7,9,10-hexahydro-[1,4]oxazino[3,4-h]pteridin-2-yl)phenyl)methanol] |
